Each compound was assayed on Huh7 psiCHECK-miR122 Renilla luciferase reporter, 48 h (assay: suppression of miR-122 activity, Renilla luciferase sensor – cell-based, Huh7 psiCHECK-miR122, cherry-pick, dose response (AID 652053)).
`COc1ccc(Cl)cc1N(CC(=O)N1CCCC1)S(=O)(=O)c1ccc(C)cc1` showed an AC40 of 2.49 µM.
With `COc1cc(NS(=O)(=O)c2ccc(OC)c(C)c2C)c(OC)cc1Cl` the AC40 was 3.5 µM.
`Cc1ccc(NS(=O)(=O)c2ccc3c(c2)NC(=O)CO3)cc1C` was tested, and the AC40 was 6.29 µM.
`Cc1ccc(-c2nn3c(C)nnc3c3ccccc23)cc1S(=O)(=O)NCCN1CCOCC1` gave an AC40 of 3.24 µM.
`COc1cccc(N2CCN(C(=O)c3ccc(CS(=O)c4ccccc4Cl)o3)CC2)c1` (stereo unspecified) was tested, and the AC40 was 15.8 µM.
With `Cc1ccc(-c2cnc3c(c2)C(=O)N([C@H](C)CO)C[C@@H](C)[C@H](CN(C)Cc2ccccc2F)O3)cc1` the AC40 was 2.64 µM.
With `C[C@@H]1CN([C@@H](C)CO)C(=O)c2cccc(NS(=O)(=O)c3ccccc3)c2O[C@@H]1CN(C)Cc1ccc(C(=O)Nc2ccccc2N)cc1` the AC40 was 9.09 µM.
Work on `O=C(NCc1cccc(Cl)c1)c1ccc(S(=O)(=O)Nc2cccc(C(F)(F)F)c2)cc1` yielded an AC40 of 22.5 µM.
In the case of `O=C(C1CCCCC1)N1C[C@H]2[C@@H](c3ccccc31)[C@@H](CO)N2C(=O)c1ccccc1`, the AC40 is reported as 1.37 µM.
Compound `CCOC(=O)Nc1nc(-c2ccccc2)c(C(=O)c2ccc(Cl)cc2)s1` has an AC40 of 13.8 µM.
In the case of `CC(=O)N1c2c(cc(Br)cc2S(=O)(=O)NCC2COc3ccccc3O2)CC1C` (stereo unspecified), the AC40 is reported as 4.53 µM.
Compound `C[C@H](CO)N1C[C@H](C)[C@@H](CN(C)C(=O)Nc2cccc3ccccc23)Oc2ccc(NC(=O)Nc3ccc(C(F)(F)F)cc3)cc2CC1=O` has an AC40 of 7.77 µM.
`COc1cccc(NS(=O)(=O)c2cc(C)sc2C)c1` was tested, and the AC40 was 1.43 µM.
In the case of `C[C@H](CO)N1C[C@H](C)[C@@H](CN(C)CC2CCCCC2)Oc2c(NC(=O)c3ccncc3)cccc2C1=O`, the AC40 is reported as 1.97 µM.
Work on `C[C@@H]1CN([C@@H](C)CO)C(=O)c2cccc(NC(=O)C3CC3)c2O[C@@H]1CN(C)Cc1ccc(C(=O)Nc2ccccc2N)cc1` yielded an AC40 of 3.72 µM.
`Cc1ccc(NS(=O)(=O)c2ccc(-c3cnc(C4CC4)o3)cc2)cc1` gave an AC40 of 9.25 µM.
`Cc1ccc(-c2nn(Cc3ccccc3)cc2C(=O)N2CCN(c3ccccn3)CC2)cc1` gave an AC40 of 2.44 µM.
With `COc1cc(C)c(C(C)C)cc1S(=O)(=O)NC1CC(C)(C)NC(C)(C)C1` the AC40 was 0.59 µM.
For `O=S(=O)(/N=C(/Nc1ccc(Cl)c(S(=O)(=O)N2CCOCC2)c1)c1ccc(F)cc1)c1ccccc1`, the AC40 was 0.864 µM.
`COCCNC(=O)C[C@@H]1CC[C@H]2[C@H](COc3ccc(NC(=O)Cc4ccccc4)cc3C(=O)N2C)O1` was tested, and the AC40 was 1.34 µM.
With `CC(=O)c1cccc(NS(=O)(=O)c2cc(-c3cnc(C4CC4)o3)ccc2C)c1` the AC40 was 6.63 µM.
Compound `CCCNC(=O)C[C@H]1CC[C@H]2[C@H](COc3ccc(NC(=O)c4ccc5c(c4)OCO5)cc3C(=O)N2C)O1` has an AC40 of 14.2 µM.
`CCN(CC)c1ccc(NC(=O)c2cnccn2)cc1S(=O)(=O)Nc1ccc(OC)cc1` was tested, and the AC40 was 0.976 µM.
For `COc1ccc(NC(=O)Nc2cccc3c2O[C@H](CN(C)Cc2ccc4c(c2)OCO4)[C@@H](C)CN([C@H](C)CO)C3=O)cc1`, the AC40 was 22.8 µM.
`C[C@H](CO)N1C[C@H](C)[C@@H](CN(C)Cc2ccc(C(F)(F)F)cc2)Oc2ccc(N(C)C)cc2C1=O` gave an AC40 of 0.891 µM.
Work on `COc1ccc(C)cc1S(=O)(=O)NC1CCCC1` yielded an AC40 of 6.24 µM.
`COc1ccccc1NS(=O)(=O)c1cc(NC(=O)Nc2ccccc2)ccc1N1CCCCC1` was tested, and the AC40 was 1.37 µM.
`O=C(CSc1nnc(-c2cc3ccccc3cc2O)n1Cc1ccco1)c1ccc(F)cc1` gave an AC40 of 5.74 µM.
Compound `Cc1cc(C)c(C)c(S(=O)(=O)NC2CCCCC2)c1C` has an AC40 of 0.607 µM.
Compound `COc1ccc(S(=O)(=O)NCc2ccccn2)cc1NC(=O)c1ccc(C)cc1` has an AC40 of 7.81 µM.
`CCc1c(C(=O)NC2CCCc3ccccc32)[nH]c(C)c1C(C)=O` (stereo unspecified) gave an AC40 of 9 µM.
With `COc1ccc(NS(=O)(=O)c2cc(NC(=O)c3sccc3C)ccc2N2CCOCC2)cc1` the AC40 was under 0.26 µM.
`O=C(CN(C1CCCCC1)S(=O)(=O)c1ccc(F)cc1)Nc1ccc2c(c1)OCO2` gave an AC40 of 6.36 µM.
Work on `Cc1ccc(C)c(S(=O)(=O)Nc2cc3c4c(c2)CCC(=O)N4CCC3)c1` yielded an AC40 of 0.678 µM.
With `Cc1ccc(C)c(S(=O)(=O)Nc2ccc(C(=O)N3CCCCC3)cc2)c1` the AC40 was 3.58 µM.
Compound `CCCC#Cc1cnc2c(c1)C(=O)N([C@H](C)CO)C[C@H](C)[C@H](CN(C)Cc1ccccc1F)O2` has an AC40 of 13.1 µM.
`Cc1cc(C)c(C)c(S(=O)(=O)Nc2ccc(C(=O)N3CCCC3)cc2)c1C` was tested, and the AC40 was 2 µM.
`Cc1cccc(NS(=O)(=O)c2cc3c4c(c2)C(C)C(=O)N4CCC3)c1` (stereo unspecified) showed an AC40 of 1.93 µM.
`O=C(Nc1ccc(N2CCOCC2)c(S(=O)(=O)Nc2cc(Cl)ccc2Cl)c1)c1cccnc1` was tested, and the AC40 was 0.681 µM.
`C[C@@H]1CN([C@H](C)CO)C(=O)Cc2cc(NC(=O)Nc3ccc4c(c3)OCO4)ccc2O[C@@H]1CN(C)C(=O)Nc1cccc2ccccc12` was tested, and the AC40 was 0.579 µM.
For `COc1ccccc1CNC(=O)C[C@H]1CC[C@H]2[C@H](COc3ccc(NS(=O)(=O)c4ccc(C)cc4)cc3C(=O)N2C)O1`, the AC40 was 22.4 µM.
With `CCCNC(=O)NC[C@@H]1[C@@H](c2ccc(C3=CCCC3)cc2)[C@H](CO)N1C(=O)CC` the AC40 was 5.75 µM.
In the case of `C[C@H](CO)N1C[C@H](C)[C@@H](CN(C)CC2CC2)Oc2c(NC(=O)C3CC3)cccc2C1=O`, the AC40 is reported as 22.2 µM.
With `O=S(=O)(Nc1ccc(Cl)cc1)c1cccc2cccnc12` the AC40 was 4.21 µM.
`CC(C)NC(=O)Nc1cccc2c1O[C@@H](CN(C)Cc1ccc(C(F)(F)F)cc1)[C@H](C)CN([C@H](C)CO)C2=O` showed an AC40 of 1.52 µM.
Compound `O=C(c1ccc(F)cc1)N1C[C@H]2[C@@H](c3ccccc31)[C@@H](CO)N2C(=O)c1ccc(F)cc1` has an AC40 of 1.59 µM.
`O=S(=O)(c1ccc(F)cc1)N1C[C@H]2[C@@H](c3ccccc31)[C@@H](CO)N2Cc1ccc2c(c1)OCO2` showed an AC40 of 4.82 µM.
`CCOc1ccccc1C(=O)N1CCN(c2cccc(Cl)c2)CC1` gave an AC40 of 11.6 µM.
Compound `COc1ccc(S(=O)(=O)NC2CCCCC2)c(C)c1C` has an AC40 of 1.57 µM.
`CCC(C(=O)Nc1ccc(N2CCOCC2)c(S(=O)(=O)Nc2ccccc2OC)c1)c1ccccc1` (stereo unspecified) gave an AC40 of 1.11 µM.
`C[C@H](CO)N1C[C@H](C)[C@@H](CN(C)Cc2ccc(C(F)(F)F)cc2)Oc2c(NC(=O)C3CCCCC3)cccc2C1=O` showed an AC40 of 0.596 µM.
Work on `CCCCOc1ccc(S(=O)(=O)Nc2ccc(NC(C)=O)cc2)cc1` yielded an AC40 of 10.3 µM.
In the case of `C[C@H](CO)N1C[C@H](C)[C@@H](CN(C)Cc2ccc(C(=O)Nc3ccccc3N)cc2)Oc2c(NC(=O)Nc3ccccc3)cccc2C1=O`, the AC40 is reported as 23.5 µM.
Work on `C[C@H]1CN([C@@H](C)CO)C(=O)c2cccc(NC(=O)C3CCCCC3)c2O[C@@H]1CN(C)Cc1ccc(C(F)(F)F)cc1` yielded an AC40 of 0.547 µM.
Compound `CC(C)CC#Cc1ccc2c(c1)O[C@H](CN(C)C(=O)Nc1ccccc1F)[C@@H](C)CN([C@@H](C)CO)S2(=O)=O` has an AC40 of 2.15 µM.
Compound `Cc1ccc(C(=O)C2Oc3ccccc3C3CC(c4ccc(C)cc4)=NN23)cc1` (stereo unspecified) has an AC40 of 1.17 µM.
`Cc1ccc(C)c(S(=O)(=O)Nc2ccc(C(=O)N3CCOCC3)cc2)c1` was tested, and the AC40 was 7.88 µM.
`CC(=O)c1c(C)[nH]c(C(=O)N(CCc2ccccc2)Cc2ccccc2)c1C` gave an AC40 of 30.8 µM.
In the case of `Cc1cc(C)nc(N/C(=N\S(=O)(=O)Cc2ccccc2)Nc2ccccc2Br)n1`, the AC40 is reported as 8.51 µM.
`O=C(c1ccccc1F)N1C[C@@H]2[C@H](c3ccccc31)[C@H](CO)N2C(=O)c1ccc(F)cc1` was tested, and the AC40 was 21 µM.
`COc1ccc(C)cc1S(=O)(=O)NC1CCCCC1C` (stereo unspecified) showed an AC40 of 3.25 µM.
`Cc1ccc(NS(=O)(=O)c2csc(C(N)=O)c2)cc1C` was tested, and the AC40 was 3.14 µM.
In the case of `CCCNC(=O)C[C@@H]1CC[C@H]2[C@H](COc3ccc(NC(=O)Nc4ccccc4F)cc3C(=O)N2C)O1`, the AC40 is reported as 2.53 µM.
`COc1ccc(OC)c(S(=O)(=O)Nc2ccccc2C(F)(F)F)c1` gave an AC40 of 9.97 µM.
In the case of `CC1=CC(C)(C)N(S(=O)(=O)c2ccc(C)cc2)c2cc(C)ccc21`, the AC40 is reported as 3.72 µM.
Work on `Cc1ccc(SCCNC(=O)c2ccc(C)c(S(=O)(=O)Nc3cccc(C)c3)c2)cc1` yielded an AC40 of 3.74 µM.
